Each structure is given as a SMILES string. Where two headings read alike, the source gives them in different places.

A short description of series [1]: Plasma stability of cordycepin in human plasma. It is filed as in vitro ADME. Conditions: read-out: ex vivo stability half-life (t1/2) in plasma. The procedure:
(§1) Stability of cordycepin in plasma was tested using human and rat plasma by following a previously reported method with minor modifications. Cordycepin was spiked into the plasma at 10 µM and the samples were incubated in a shaking incubator (Thermo Scientific MaxQ4000, Waltham, MA, USA) at 37 °C and shaken at 250 rpm. Samples (100 µL) were withdrawn at predetermined time points. […] The experiments were performed in triplicates.
(§2) Samples from studies of plasma stability, protein binding, biorelevant solubility and liver microsomal stability were subjected to liquid-liquid extraction and HPLC-UV analysis. To 100 µL of sample, internal standard (2′-deoxyadenosine) was spiked at 10 µg/mL and 300 µL of 0.1 M NaOH was added. Extraction solvent (3 mL) of ethyl acetate-isopropyl alcohol (85:15, v/v) was added and vortex-mixed for 10 min. Samples were then centrifuged at 1160 g for 5 min and the supernatant was transferred and dried under N2 gas. Dried samples were reconstituted with 100 uL of deionised distilled water (DDW) and 40 µL was injected into the HPLC-UV. The HPLC-UV setup was adopted from a validated method[22] with addition of a gradient scheme to elute the impurities from samples. Waters Alliance 2695 module with Waters 996 PDA detector was used for the HPLC-UV system with Capcell Pak C18 3 µm, 4.6 × 150 mm as the stationary phase. […]

Series [2] is described as follows: Plasma protein binding, ultrafiltration, rat plasma. It is filed as in vitro ADME. Conditions: read-out: fraction unbound (Fub) in plasma. The procedure: Cordycepin was spiked into the plasma to give concentrations of 100, 500, 1000 and 5000 ng/mL, and the samples (300 µL) were incubated in the shaking incubator at 250 rpm and 37 °C for 1 h. Following incubation, 100 µL was withdrawn and analysed for Ct. The remaining sample was transferred to a filter device (Amicon Ultra-0.5 Centrifugal Filter Units, MWCO 3000, Merck Millipore, Cork, Ireland) and was centrifuged at 14,000 g for 10 min at room temperature. Filtrate was collected and analysed for Cf. The fraction unbound in plasma (Fub) was calculated by the equation: Cf/Ct × 100 = Fub. Non-specific binding of cordycepin to the filter device was tested at the same concentration range using phosphate buffered saline (PBS) instead of plasma. Experiments were conducted in quadruplicates.
Samples from studies of plasma stability, protein binding, biorelevant solubility and liver microsomal stability were subjected to liquid-liquid extraction and HPLC-UV analysis. To 100 µL of sample, internal standard (2′-deoxyadenosine) was spiked at 10 µg/mL and 300 µL of 0.1 M NaOH was added. Extraction solvent (3 mL) of ethyl acetate-isopropyl alcohol (85:15, v/v) was added and vortex-mixed for 10 min. Samples were then centrifuged at 1160 g for 5 min and the supernatant was transferred and dried under N2 gas. […]

Series [3] in a line: Liver microsomal stability, rat liver microsomes. It counts as in vitro ADME. Conditions: for Fh, parallel-tube model / Fh, well-stirred model / CLint scaled at 1 µM: rat liver microsome, pentostatin −; for CLint scaled at 1 µM: rat, liver microsomes. The procedure: (§3) Human and rat liver microsomes were used in the experiment following previously reported methods[49],[50]. Microsomes were used at 0.5 mg protein/mL and cordycepin was tested at 1 µM. […] The reaction mixture was incubated in the shaking incubator at 37 °C for 30 min with sampling every 10 min. The results of intrinsic clearance and the fraction that escapes hepatic metabolism (by both well-stirred and parallel-tube models) were calculated by previously reported equations and physiological parameters[50]–[52]. The experiments were performed in triplicates.
(§4) Samples from studies of plasma stability, protein binding, biorelevant solubility and liver microsomal stability were subjected to liquid-liquid extraction and HPLC-UV analysis. To 100 µL of sample, internal standard (2′-deoxyadenosine) was spiked at 10 µg/mL and 300 µL of 0.1 M NaOH was added. Extraction solvent (3 mL) of ethyl acetate-isopropyl alcohol (85:15, v/v) was added and vortex-mixed for 10 min. Samples were then centrifuged at 1160 g for 5 min and the supernatant was transferred and dried under N2 gas. Dried samples were reconstituted with 100 uL of deionised distilled water (DDW) and 40 µL was injected into the HPLC-UV. The HPLC-UV setup was adopted from a validated method[22] with addition of a gradient scheme to elute the impurities from samples. Waters Alliance 2695 module with Waters 996 PDA detector was used for the HPLC-UV system with Capcell Pak C18 3 µm, 4.6 × 150 mm as the stationary phase. Mobile phase was a mixture of acetonitrile (A) and DDW (B) at flow rate 0.8 mL/min with a gradient scheme of the following: 0–9 min, B 94%; 9–14 min, B decreased to 20%; 14–24 min, B 20%; 24–26 min, B increased to 94%; and 26–35 min, B 94%. Calibration curves were constructed at a range of 10 – 20000 ng/mL and chromatograms were obtained at 259 nm of wavelength.

Series [4] is described as follows: Plasma stability of cordycepin in rat plasma. Conditions: read-out: ex vivo stability half-life (t1/2) in plasma. It is filed as in vitro ADME. The procedure:
as §1, §2

Series [5] can be described thus: Liver microsomal stability, human liver microsomes. It counts as in vitro ADME. Conditions: human liver microsome, pentostatin −; for CLint scaled at 1 µM: human, liver microsomes. The procedure: as §3, §4
Series [6] in a line: Biorelevant solubility (FaSSGF, FaSSIF, FeSSIF). It counts as physicochemical. Conditions: thermodynamic from solid, compared with reported water solubility. The procedure: The three biorelevant fluids of fasted state simulated gastric fluid (FaSSGF, pH 1.6), fasted state simulated intestinal fluid (FaSSIF, pH 6.5) and fed state simulated intestinal fluid (FeSSIF, pH 5.0) were prepared according to previously reported compositions. The test mixtures containing biorelevant fluids and excessive amount of cordycepin were shaken at 250 rpm, 37 °C for 2 h in the shaking incubator. The mixtures were then filtered using Costar Spin-X Centrifuge Tubes (Fisher Scientific, Loughborough, UK) at 2400 g for 5 min. The filtrate was subjected to analysis by HPLC-UV. The experiments were conducted in quadruplicates.
as §4

Another series relates to RAW264.7 cells. Briefly: Repression of inflammatory gene expression in LPS-stimulated RAW264.7 cells (qPCR). Conditions: 20 µM, 1 h prior to LPS stimulation. It is filed as cell-based, mouse. The procedure: RAW 264.7 mouse macrophage cells were cultured in DMEM supplemented with 10% FBS. Prior to experiments, cells were washed with PBS and cells were maintained in DMEM with 0.5% FBS or 10% FBS for 24 h. LPS was added at 1 µg/mL, 1 h before compound treatment, when needed. When the cells were analysed for concentration levels of cordycepin, 3′-deoxyinosine and CordyTP, the cells were washed twice with PBS. The cells were then treated with methanol and mixed vigorously before the mixture was harvested. The mixture was filtered using filter tubes mentioned above and the filtrate was analysed by liquid chromatography coupled with tandem mass spectrometry (LC-MS/MS). For determination of relative mRNA levels, RNA was isolated from the lysates using an RNA isolation kit, following manufacturer’s protocol (Promega, Madison, WI, cat no. Z6012). RNA was reverse transcribed to cDNA using SuperScript™ III reverse transcriptase (Invitrogen, Carlsbad, CA). Quantitative polymerase chain reaction (qPCR), was performed with Qiagen Rotor-Gene Q qPCR machine (Qiagen, Hilden, Germany) using Promega SYBR Green GoTaq® qPCR master mix (Promega).
Figure 3 Repression effect on inflammatory gene expression. (a) NBTI or ITu treatment prior to cordycepin treatment suppresses effect of cordycepin. RAW264.7 cells were treated with 10 µM NBTI, 100 nM ITu or DMSO (Ctrl, control) 15 min prior to cordycepin treatment. The cells were stimulated with LPS 1 h after cordycepin treatment (mean ± SD, n = 3). **p < 0.01; ***p < 0.001 compared to DMSO treatment (labelled as Ctrl). (b) 3′-deoxyinosine exerts same repression effect as cordycepin, although to a lesser degree. RAW264.7 cells were treated with 20 µM cordycepin, 20 µM 3′-deoxyinosine (3DI) or DMSO (Ctrl, control) for 1 h prior to LPS stimulation (mean ± SD, n = 3). **p < 0.01; ***p < 0.001 compared to without compound treatment (labelled as LPS).

Where [7] appears, read: text summary over rat and human liver microsomes, without pentostatin.

`Nc1ncnc2c1ncn2[C@@H]1O[C@H](CO)C[C@H]1O` [cordycepin, 3′-deoxyadenosine]: the half-life at 10 µM in series [1] came out at 25.8 ± 4 min; in series [4], 25 ± 0.7 min. The free fraction (fraction unbound) at 1 h in series [2] was > 0.8. Also, the “Fh, parallel-tube model” value came out at 0.1 ± 0.0% in series [3] (NADPH +), 0.1 ± 0.1% in series [3] (NADPH −), 0.0 ± 0.0% in series [5] (NADPH +) and 0.0 ± 0.0% in series [5] (NADPH −). For the same compound, the “Fh, well-stirred model” value in series [3] (NADPH +) is recorded as 12.4 ± 0.9%; in series [3] (NADPH −) it was 12.5 ± 1.5%; in series [5] (NADPH +), 10.3 ± 0.7%; in series [5] (NADPH −), 10.4 ± 0.3%. The intrinsic metabolic clearance (CLint scaled) at 1 µM in series [3] (NADPH +) is 392 ± 31.3 mL/min/kg; in series [3] (NADPH −) it was 390 ± 51.4 mL/min/kg; in series [5] (NADPH +) it was 181 ± 13.9 mL/min/kg; in series [5] (NADPH −), 179 ± 5.3 mL/min/kg. In addition, in series [3] (setting [7]), the “Fh calculated from CLint, parallel-tube model” value is reported as ~0%. Further, in series [3] (setting [7]), the “Fh calculated from CLint, well-stirred model” value is reported as 10–13%. Further, the solubility at 2 h was > 5000 µg/mL in series [6] (FaSSGF, fassgf or other biorelevant, pH 1.6, 37 °C, read-out: solubility in FaSSGF); > 5000 µg/mL in series [6] (FaSSIF, pH 6.5, 37 °C, read-out: solubility in FaSSIF); > 5000 µg/mL in series [6] (FeSSIF, pH 5.0, 37 °C, read-out: solubility in FeSSIF). Further, the “effect on expression of inflammatory genes” value in the series with RAW264.7 cells is “inhibitory effect”.
